Measured values from patent US20260242359A1, “IRHOM2 INHIBITORS AND USES THEREOF” (NEW YORK SOCIETY FOR THE RELIEF OF THE RUPTURED AND …, priority 2023, published 2026).

How the values were obtained:
Type in all cases: cell-based
[1] = tested on: TNFα release from LPS-stimulated THP-1 cells (iRhom2/ADAM17-dependent); test: Primary screen (Example 1b): LPS-stimulated TNFα release from THP-1 cells, HTRF; conditions: Homo sapiens, overnight pre-incubation, LPS 100 ng/mL, 3 h, normalized against 10 μM Batimastat
Description: (§1) Two separate screens to identify novel small molecule inhibitors of iRhom2/ADAM17 activity were developed. […] Therefore, the primary screen for small molecule inhibitors of iRhom2/ADAM17 was a screen for inhibitors that blocked the release of TNFα from LPS-stimulated THP-1 human myeloid cells, a process that depends on iRhom2 and ADAM17. Since the release of TNFα from THP-1 cells can be blocked at many stages of the LPS/TLR4/iRhom2/ADAM17 pathway, a secondary screen was performed for another iRhom2/ADAM17 selective substrate, Kit-ligand 2 (KL-2) (Maretzky T et al. (July 2013), “iRhom2 controls the substrate selectivity of stimulated ADAM17-dependent ectodomain shedding”, PNAS 110(28): 11433-11438) in a different human cell type, human embryonic kidney cells (HEK 293).
THP-1 cells were plated in low volume 384 wells (10,000 cells per well in 12.6 μL RPMI medium) together with inhibitors or 10 μM BB94 and incubated over night. The next day, TNFα shedding was initiated by stimulation of THP-1 cells with 100 ng/mL LPS (1.8 μL of an 800 ng/mL LPS stock) for 3 hrs at 37° C. The extent of released TNFα was detected with the corresponding HTRF antibodies labeled with europium cryptate (donor) and d2 (acceptor). The HTRF signal was generated by proximity of europium cryptate and d2. All detection reagents were purchased from Cisbio. TNFα detection was performed according to the manufacturer's protocol (Product Insert for Cisbio TNFα (h) Kit Part #62HTNFAPEG & 62HTNFAPEH; https://www.cisbio.com/media/asset/c/i/cisbio_dd_pi_62htnfapeg-62htnfapeh.pdf, accessed Sep. 28, 2020).
Low volume 384 well plates were pre-coated with small molecule library compounds for a final concentration of 20 μM in a 15 μL reaction, or 0.75 μL of 200 μM stock of BB94 in 5% DMSO (final concentration 0.25%). 12.6 μL of cell suspension [8E5/mL; 10,000 cells/well; culture RPMI medium] and pre-incubated at 37° C., 5% CO2, over night. The next day, 1.8 μL of an 800 ng/mL LPS stock was added [final concentration 100 ng/mL in 15 μL assay] and the cells were incubated at 37° C., 5% CO2, for 3 h. Subsequently, 3 μL of the HTRF-mix [used at 1:3 dilution of cisbio HTRF human TNF] was added and the plates were incubated for an additional 2 hrs at 25° C. After an incubation at room temperature for 2 h, the HTRF readout was performed. Then data evaluation for normalization against the 10 μM Batimastat control (=100% […]) was applied.

[2] = tested on: PMA-stimulated KL2 release from HEK-293 cells (iRhom2/ADAM17 selective substrate); test: Secondary screen (Example 3b): PMA-stimulated KL2 release from HEK-293 cells, AP readout; conditions: Homo sapiens, HEK293, HEK-293 cells expressing KL2-AP, PMA 100 ng/mL, 2 h, read-out: Secondary Screen IC50 KitL2
Description: as §1
(§2) Expression plasmids for alkaline phosphatase (AP)-fused human KL2 and TGFα had been previously designed and generated through gene synthesis followed by subcloning into the pcDNA3.1(+)/Hygro expression vector. […] Subsequently, DNA amplifications were performed to obtain sufficient amounts of the expression vectors. The quality of DNA and gene sequences were confirmed through restriction digest and Sanger sequencing. In parallel, cell culture of HEK-293 cells was initiated. Master and working cell banks were prepared, scaled up and transfected with the respective constructs by electroporation. During cell culturing, cell density and viability were monitored to ensure optimal conditions for the transfections. After PMA stimulation, AP-coupled KL2 or TGFα were detected by measurement of AP activity in the supernatant.
(§3) After electroporation, cells were further cultured in presence of selection antibiotics, hygromycin B, to generate stably transfected polyclonal cell pools. For both assays, KL2 and TGFα shedding, the respective selected pool turned out to be suitable. Final assay conditions were determined for the selected pools. For all experiments, batimastat (BB94, 10 μM) was used as positive control for full inhibition of KL2 or TGFα shedding.
(§4) The wells of sterile 384-well flat bottom clear plates for KL2-AP assays were coated with 10 μL of 0.1 mg/mL poly-d-lysine for 3-4 hr at 25° C. or overnight at 4° C., then washed 2× with PBS and patted dry. 60 μL of cells (40,000/well) were added to the sterile 384-well plate and incubated in Optimem (with 2% FCS and 1% Pen-strep) overnight at 37° C. (5% CO2). After incubation overnight, 55 μL medium were removed with a BioTek EL406 and 10 μL of prediluted compounds were added to the cells for a final concentration of 20 μM. After incubation for 15 min, 15 μL of PMA (100 ng/mL final conc.) were added. The cells were incubated for 2 h at 37° C. (5% CO2). Then, the plates were centrifuged for 5 min at 1000 rpm and 3 μL of the supernatant was transferred to a fresh 384 well plate and 9 μL of AP Balance Buffer was added per well. 12 μL of pNPP p-nitrophenyl phosphate (final 1 M pNPP) was added. AP reaction was performed for 1 h at 37° C. The reaction was stopped by addition of 12 μL of NaOH (1 M final conc.), the plates were centrifuged to remove air bubbles and the absorbance of pNP was measured at 405 nm.

[3] = tested on: PMA-stimulated TGFα release from HEK-293 cells (substrate of iRhom1/ADAM17 and iRhom2/ADAM17); test: Counter screen (Example 4b): PMA-stimulated TGFα release from HEK-293 cells, AP readout; conditions: Homo sapiens, HEK293, HEK-293 cells expressing TGFα-AP, PMA 100 ng/mL, 2 h
Description: A tertiary counterscreen was also performed to monitor the release of TGFα, which is a substrate of iRhom1/ADAM17 and iRhom2/ADAM17, so its release should not be blocked by an iRhom2-selective inhibitor (Maretzky T et al. (July 2013), “iRhom2 controls the substrate selectivity of stimulated ADAM117-dependent ectodomain shedding”, PNAS 110(28): 11433-11438; and Li X et al. (May 2015), “iRhoms 1 and 2 are essential upstream regulators of ADAM17-dependent EGFR signaling”, PNAS 112(19): 6080-6085).
as §2, §3
as §4, with “for TGF-AP” for “for KL2-AP”, “cells (20,000/well)” for “cells (40,000/well)”, “and 12” for “and 3”, “well plate.” for “well plate and 9 μL of AP Balance Buffer was added per well.”

CC(=O)Oc1ccccc1Cn1c(C)c(C(=O)NCc2cccs2)sc1=O [Compound 6]
IC50 [1]: 4.86 µM | IC50 [2]: > 40 µM | IC50 [3]: > 40 µM
